The text below walks through data of patent publication US10450260B2, “NO- and H2S-releasing compounds” (RESEARCH FOUNDATION OF THE CITY UNIVERSITY OF NEW YORK, priority 2011, dated 2019).

For one series, the system named is COX-2. The series can be described thus: Western blot of COX-2 in paw exudates. The series is classed as in vivo, rat. Particulars: NOSH-1 at 2 doses one hour before carrageenan. Here is the method: (§1) Exudates (oedema fluid) and some tissue were homogenized in lysis buffer (0.1% Triton X-100, 50 μM pepstatin, 0.2 mM leupeptin, 1 μg/mL aprotinin, 10 mg/ml phenylmethylsulfonyl fluoride, 50 mM Tris, and 10 mM EDTA). Samples were then centrifuged, and the protein concentration of the supernatant was determined by colorimetric assay (Bio-Rad, Hercules, Calif.). Protein (30 μg) was separated on a 10% polyacrylamide gel and then transferred to a nitrocellulose membrane (Bio-Rad, Hercules, Calif.). Proteins were probed with monoclonal mouse antibody against COX-1 and COX-2 (1:500; Cayman Chemical, Ann Arbor, Mich.). The membrane was then incubated with a goat anti-mouse IgG secondary antibody conjugated to horseradish peroxidase (Santacruz Biotechnology, Santa Cruz, Calif.). A chemiluminescence reagent (Amersham Pittsburg, Pa.) was added to visualize the labeling according to the manufacturer's instructions.
On the technique in general: Immunoblotting shows a protein as a band on a membrane.

The test system of a further series is HT-29 cells. The series can be described thus: LDH release assay. The series is classed as cell-based, human. On the procedure: For determination of lactate dehydrogenase (LDH) activity, HT-29 cells (1×10^5 cells/well) were incubated in 96-well plates with different concentrations of NOSH-1. After incubation for 2, 4, 8, 12 and 24 h, LDH activity in the supernatant was assessed using the LDH Cytotoxicity Assay Kit (Cayman Chemical Ann Arbor, Mich.), according to the manufacturer's instructions. Cytotoxicity was calculated as a percentage based on the LDH activity released from cells that had been treated with NOSH-1 compared with LDH activity from cultures incubated with Triton X-100. The % of LDH release was determined using the formula (E−C)/(T−C)×100, where E is the experimental absorbance of cell cultures, C is the control absorbance of cell-free culture medium, and T is the absorbance corresponding to the maximal (100%) LDH release of Triton-lysed cells.^1
Background: LDH in the medium is a marker of cell lysis.

A further series concerns COX-1. The series can be described thus: Western blot of COX-1 in paw exudates. The format is in vivo, rat. The settings on record: NOSH-1 at 2 doses one hour before carrageenan. Here is the method: as §1

The structures appear in SMILES notation. “Also recorded” adds a separate entry of the source.

`O=C(CCCO[N+](=O)[O-])Oc1ccccc1C(=O)Oc1ccc(-c2cc(=S)ss2)cc1` [NOSH-1, 4-(3-thioxo-3H-1,2-dithiol-5-yl)phenyl 2-((4-(nitrooxy)butanoyl)oxy)benzoate]: the “COX-2 expression in paw exudates induced by carrageenan” value in the series on COX-2 was “inhibited induction; also recorded: dose-dependently inhibited”. The LDH release entry was “less than 10%” with HT-29 cells (4-times its IC50, 24 hours); 1-5% in the series with HT-29 cells (4-times its IC50, shorter durations (2, 4, 6, 8 hours)); 0.5-4% in the series on HT-29 cells (at its IC50, shorter durations (2, 4, 6, 8 hours)). Further, the “COX-1 expression in paw exudates induced by carrageenan” value in the series on COX-1 was “inhibited induction; also recorded: inhibited to the same extent”.
